This is an account of results in US10940206B2, “Ophthalmic composition comprising lipoic acid and a mucomimetic polymer” (OPHTALMIS MONACO, priority 2015, dated 2021).

The nature of data set [1]: Osmoprotective activity: cell viability (XTT assay) under hyperosmolar stress. The note with it: human, 0 h (pre-osmotic stress, after 17 h preincubation). The class given is cell-based, human. The protocol: (§1) A study was carried out to determine the osmoprotective capacity of sodium lipoate (A) during hyperosmolar stress on human conjunctival (WKD) and corneal (HCE) cells. The osmoprotective activity of A, then A with B and C, was evaluated by measuring cell viability in particular. To that end, cells were preincubated for 17 h with the test substance(s). Next, the medium was removed and the cells were subjected to hyperosmolar stress by addition of sodium chloride (100 mM NaCl) to the culture medium (M199 for the WKD cells and KSFM for the HCE cells). Cellgrowth control cells were contacted with isotonic medium. Cell viability was analyzed preosmotic stress (0 h) in order to measure the effect of the molecules remaining in contact with the cells during the 17 h of incubation, then at 4 h, 8 h and 24 h post-induction of osmotic stress. The cell viability measurement was carried out via an XTT assay. Various concentrations of A were tested for the “molecule alone” tests: 0.0005%, 0.001%, 0.005%, 0.01% and 0.05% w/v. For the molecule mixture tests, the following concentrations were tested: for A: 0.001%, 0.005%, and 0.01% w/v; for B: 0.25% w/v; and for C: 0.5% and 1% w/v. To ensure the validity and the significance of the data, the results obtained were analyzed statistically. The results presented below result from the mean of 3 independent repetitions, carried out on different days.

Data set [2] relates to human conjunctival (WKD) and corneal (HCE) cells. The description is as above. The class given is cell-based. The note with it: Homo sapiens, HCE; for viability at 0.0005 % strength: 0.0005% w/v; for viability at 0.001 % strength: 0.001% w/v; for viability at 0.005 % strength: 0.005% w/v; for viability at 0.01 % strength: 0.01% w/v; for viability at 0.05 % strength: 0.05% w/v. Here is the method: as §1

Setting [3] is: 4 h post-induction of osmotic stress (100 mM NaCl).
Where [4] appears, read: 8 h post-induction of osmotic stress (100 mM NaCl).
The mark [5] stands for this setting: 24 h post-induction of osmotic stress (100 mM NaCl).

As for `O=C(O)CCCCC1CCSS1` (centres unmarked) [sodium lipoate, 5-(1,2dithiolan-3-yl)pentanoic acid], in data set [1] (0.0005% w/v), the viability at 17 h, 0.0005 % w/v stood at 99.9%. The viability at 17 h, 0.001 % w/v in data set [1] (0.001% w/v) turned out to be 98.5%. Besides, the viability at 17 h, 0.005 % w/v in data set [1] (0.005% w/v) stood at 103%. In addition, in data set [1] (0.01% w/v), the viability at 17 h, 0.01 % w/v was 98.1%. For the same molecule, in data set [1] (0.05% w/v), the viability at 17 h, 0.05 % w/v came out at 56.3%. For the same molecule, in data set [2] (setting [3]), the viability at 0.0005 % strength came out at 62.7%, the viability at 0.001 % strength was determined as 69.6%, the viability at 0.005 % strength was 109% and the viability at 0.01 % strength stood at 120%. In addition, the viability at 0.05 % strength in data set [2] (setting [3]) was 46%. In data set [2] (setting [4]), the viability at 0.0005 % strength amounted to 38.5%, the viability at 0.001 % strength was 42.4%, the viability at 0.005 % strength was found to be 76.1% and the viability at 0.01 % strength is 82.9%. Further, in data set [2] (setting [4]), the viability at 0.05 % strength came to 27.8%. Moreover, in data set [2] (setting [5]), the viability at 0.0005 % strength was 18.8%, the viability at 0.001 % strength amounted to 18.5%, the viability at 0.005 % strength turned out to be 12.6% and the viability at 0.01 % strength was determined as 8.9%. In addition, in data set [2] (setting [5]), the viability at 0.05 % strength stood at 2.7%.
